Assay results published in US10160771B2, “Hepatitis C virus inhibitors and uses thereof in preparation of drugs” (priority 2014, dated 2018).

Assays:
[1] = tested on: HCV genotype 1b (HCV-1b) replicon cells; test: HCV genotype 1b replicon luciferase assay (EC50); assay type: cell-based, hepatitis C virus genotype 1b (Con1 clone); conditions: 3 days, luciferase (Bright-Glo)
Protocol: (§1) The EC50 and CC50 values of anti-HCV compounds were determined by HCV genotype 1a (HCV-1a) and 1B (HCV-1b) stable transfer replication (replicon) cells. The source of genotype 1a replicon is H77 clones containing K1691R, K2040R and S2204I adaptive mutations. The source of genotype 1b replicon is Con1 clones containing E1202G, T1280I and K1846T adaptive mutations.
(§2) HCV 1a (HCV-1a) and 1b (HCV-1b) gene subtype replicon system contains the related HCV gene subtype non structural protein gene, G418 resistance gene NEO and luciferase gene, which results in that HCV related protein and luciferase can be stably expressed in cells. By detecting the level of expression of luciferase gene, the level of HCV replication can be determined. Therefore, the system is used as a model for screening the activity of anti-HCV compound in vitro.
(§3) HCV Replicon Cell Lines: HCV-1a and HCV-1b Cells
(§4) The compound powder was dissolved in 100% DMSO. Then the compound was diluted 5 times with 6 points, and added into the cell plate with Echo liquid handler. Ensure the final concentration of DMSO was 0.5%. Each compound was tested in double holes. Maximum initial concentration was 100, 10 or 1 nM, 5 times dilution, 6 points.
(§5) b) Cell Culture (HCV-1a or HCV-1b Replicon Cell):
(§6) 1) absorbing the culture supernatant of the cell culture and washing the cells with 10 mL PBS.
(§7) 2) adding preheated pancreatin to the washed cell culture flasks, rotating culture bottle to make the bottom of the culture bottle uniformly covered by pancreatin, then placed into 37° C., 5% CO2 incubator to digest.
(§8) 3) suspending cells in each T150 culture flask with 10-15 mL culture medium, absorbing 0.1 mL liquid and diluting 2 times by trypan blue solution as counted.
(§9) 4) diluting cells to 8×10^4/mL with the culture medium, adding the diluted cells into the compound-containing 96-well plate (Greiner, Cat.#655090) (100 μL/well, 8000 cells/well) with automatic liquid separator (Thermo Scientific). Then place into a 37° C., 5% CO2 incubator for 3 days. Cell control well: no compound, only containing 0.5% DMSO.
(§10) 6) then adding luciferase luminescence substrate Bright-Glo, after incubation for 5 minutes, detecting the luciferase activity by chemical luminescence detection system Envison (wavelength>700 nm); analyzing the anti-HCV inhibitory activity of the compounds according to luciferase data, which was used to calculate EC50 values.
(§11) The EC50 or CC50 values were obtained by nonlinear fitting analysis on inhibition percentage (inh %) data with GraphPad Prism software.

[2] = tested on: HCV genotype 1a (HCV-1a) replicon cells; test: HCV genotype 1a replicon luciferase assay (EC50); assay type: cell-based, hepatitis C virus genotype 1a (H77 clone); conditions: 3 days, luciferase (Bright-Glo)
Protocol: as §1, §2, §3, §4, §5, §6, §7, §8, §9, §10, §11

Structure (SMILES)	EC50 ([1]; Hepatitis C virus, 72 h) [nM]	EC50 ([2]; Hepatitis C virus, 72 h) [nM]	EC50 [1] [nM]	EC50 [2] [nM]
COC(=O)N[C@H](C(=O)N1CCC[C@H]1c1ncc(-c2ccc(-c3ccc(-c4cnc([C@@H]5[C@H]6CC[C@H](C6)[C@H]5C(=O)NCc5ccc(F)nc5)[nH]4)cc3)cc2)[nH]1)C(C)C [AA_214_ENDOA2]	0.001 to 0.1	1 to 10		
COC(=O)N[C@H](C(=O)N1CCC[C@H]1c1ncc(-c2ccc(-c3ccc(-c4cnc([C@@H]5[C@H]6CC[C@H](C6)[C@H]5C(=O)N[C@@H](C)c5nccs5)[nH]4)cc3)cc2)[nH]1)C(C)C [AA_279_ENDOA2_A]	0.001 to 0.1	0.101 to 1		
COC(=O)N[C@H](C(=O)N1CCC[C@H]1c1ncc(-c2ccc(-c3ccc(-c4cnc([C@@H]5[C@H]6CC[C@H](C6)[C@H]5C(=O)NC(C)c5cncnc5)[nH]4)cc3)cc2)[nH]1)C(C)C (some centres unmarked) [AA_292_ENDOA2_M]	0.101 to 1	1 to 10		
COC(=O)N[C@H](C(=O)N1CCC[C@H]1c1ncc(-c2ccc(-c3ccc(-c4[nH]c([C@@H]5CCCN5C(=O)[C@@H](NC(=O)OC)C(C)C)c5c4OCC5)cc3)cc2)[nH]1)C(C)C [AG_114_A]			0.101 to 1	10 to 100
COC(=O)N[C@H](C(=O)N1CCC[C@H]1c1ncc(-c2ccc(-c3ccc(-c4cnc([C@@H]5[C@H]6CC[C@H](C6)[C@H]5C(=O)N(Cc5cccnc5)C(C)C)[nH]4)cc3)cc2)[nH]1)C(C)C [AA_285_ENDOA2]	0.001 to 0.1	1 to 10		
COC(=O)N[C@H](C(=O)N1CCC[C@H]1c1ncc(-c2ccc(-c3ccc(-c4cnc([C@@H]5[C@H]6CC[C@H](C6)[C@H]5C(=O)NN5CC[C@@H](C)C5=O)[nH]4)cc3)cc2)[nH]1)C(C)C [AA_295_ENDOA2_A]	0.101 to 1	10 to 100		
COC(=O)N[C@H](C(=O)N1CCC[C@H]1c1ccc(-c2ccc(-c3ccc(-c4cnc([C@@H]5CCCN5C(=O)[C@@H](NC(=O)OC)[C@@H](C)O)[nH]4)cc3)cc2)[nH]1)C(C)C [AG_099]	0.101 to 1	1 to 10		
COC(=O)CNC(=O)C1(NC(=O)[C@@H]2C3CCC(C3)[C@H]2c2ncc(-c3ccc(-c4ccc(-c5cnc([C@@H]6CCCN6C(=O)[C@@H](NC(=O)OC)C(C)C)[nH]5)cc4)cc3)[nH]2)CCCCC1 (some centres unmarked) [AA_278]	0.101 to 1	10 to 100		
COC(=O)N[C@H](C(=O)N1CCC[C@H]1c1ncc(-c2ccc(-c3ccc(-c4cnc([C@@H]5[C@H]6CC[C@H](C6)[C@H]5C(=O)N[C@H](C(=O)NCc5cccnc5)C(C)C)[nH]4)cc3)cc2)[nH]1)C(C)C [AA_296_ENDOA2]	0.101 to 1	1 to 10		
COC(=O)N[C@H](C(=O)N1CCC[C@H]1c1ncc(-c2ccc(-c3ccc(-c4cnc([C@@H]5[C@H]6CC[C@H](C6)[C@H]5C(=O)NNC(C)=O)[nH]4)cc3)cc2)[nH]1)C(C)C [AA_289_ENDOA2]	0.101 to 1	10 to 100		
COC(=O)N[C@H](C(=O)N1CCC[C@H]1c1ncc(-c2ccc(-c3ccc(-c4cnc([C@@H]5[C@H]6CC[C@H](C6)[C@H]5C(N)=O)[nH]4)cc3)cc2)[nH]1)C(C)C [AA_284_ENDOA2]	0.001 to 0.1	10 to 100		
COC(=O)N[C@H](C(=O)N1CCC[C@H]1c1ncc(-c2ccc(-c3ccc(-c4cnc([C@@H]5[C@H]6CC[C@H](C6)[C@H]5C(=O)NCc5cncc(F)c5)[nH]4)cc3)cc2)[nH]1)C(C)C [AA_287_ENDOA2]	0.001 to 0.1	0.101 to 1		
COC(=O)N[C@H](C(=O)N1CCC[C@H]1c1ncc(-c2ccc(-c3ccc(-c4cnc([C@@H]5[C@H]6CC[C@H](C6)[C@H]5C(=O)NCc5ncc(C)[nH]5)[nH]4)cc3)cc2)[nH]1)C(C)C [AA_291_ENDOA2]	0.001 to 0.1	1 to 10		
COC(=O)N[C@H](C(=O)N[C@H]1C2CCC(C2)C1c1ncc(-c2ccc(-c3ccc(-c4cnc([C@@H]5CCCN5C(=O)[C@@H](NC(=O)OC)C(C)C)[nH]4)cc3)cc2)[nH]1)C(C)C (some centres unmarked) [AA_286]	0.001 to 0.1	10 to 100		
COC(=O)N[C@H](C(=O)N1CCC[C@H]1c1ncc(-c2ccc(-c3ccc(-c4cnc([C@@H]5[C@H]6CC[C@H](C6)[C@H]5C(=O)N[C@@H](C)c5cccnc5F)[nH]4)cc3)cc2)[nH]1)C(C)C [AA_283_ENDOA2_B]	0.001 to 0.1	0.001 to 0.1		
COC(=O)N[C@H](C(=O)N1CCC[C@H]1c1ncc(-c2ccc(-c3ccc(-c4cnc([C@@H]5C6CCC(C6)[C@H]5C(=O)NCC(=O)NCC(F)F)[nH]4)cc3)cc2)[nH]1)C(C)C (some centres unmarked) [AA_277]	0.001 to 0.1	0.101 to 1		
